Measured values: patent US20210002231A1 (Centre National de la Recherche Scientifique, priority 2018, published 2021)
Like-named read-outs stand apart in the source and are kept apart here. Residues, ends and D or L forms follow the SMILES beside them.

Key:
GPR10 = molecular target: T1, GPR10 (Homo sapiens, UniProt P49683); assay: Radioligand competition binding with [3H]-PrRP-20
T1 construct: expressed in transfected cells; host or cells: CHO cells (gift from M. Parmentier, IRIBHM, Brussels), membranes
T1 sequence (P49683 1-370): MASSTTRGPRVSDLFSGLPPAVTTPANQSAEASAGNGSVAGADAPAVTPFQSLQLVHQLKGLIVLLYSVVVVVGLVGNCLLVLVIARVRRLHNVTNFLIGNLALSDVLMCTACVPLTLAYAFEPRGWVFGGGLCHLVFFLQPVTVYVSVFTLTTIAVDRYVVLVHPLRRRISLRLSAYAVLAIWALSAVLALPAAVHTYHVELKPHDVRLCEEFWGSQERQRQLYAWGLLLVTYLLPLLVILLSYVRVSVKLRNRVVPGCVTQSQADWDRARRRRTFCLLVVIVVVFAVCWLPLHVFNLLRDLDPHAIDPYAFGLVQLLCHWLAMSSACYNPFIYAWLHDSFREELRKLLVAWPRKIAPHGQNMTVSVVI

human MOPr [1] = molecular target: T2, human MOPr (Homo sapiens, UniProt P35372); assay: BRET1 β-arrestin-2 recruitment assay; assay type: cell-based; design: expressed in transfected cells; host or cells: HEK293 cells stably expressing eYFP-β-arrestin-2, transiently transfected with the Rluc8-MOP plasmid; settings: for Emax: read-out: MOPr (β-arrestin-2) Emax;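 as to Emax: Emax relative to maximal DAMGO-induced BRET as 100%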;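 as to MOPr (β-arrestin-2) Emax: Emax relative to maximal DAMGO-induced BRET as 100%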
T2 sequence (P35372 whole entry): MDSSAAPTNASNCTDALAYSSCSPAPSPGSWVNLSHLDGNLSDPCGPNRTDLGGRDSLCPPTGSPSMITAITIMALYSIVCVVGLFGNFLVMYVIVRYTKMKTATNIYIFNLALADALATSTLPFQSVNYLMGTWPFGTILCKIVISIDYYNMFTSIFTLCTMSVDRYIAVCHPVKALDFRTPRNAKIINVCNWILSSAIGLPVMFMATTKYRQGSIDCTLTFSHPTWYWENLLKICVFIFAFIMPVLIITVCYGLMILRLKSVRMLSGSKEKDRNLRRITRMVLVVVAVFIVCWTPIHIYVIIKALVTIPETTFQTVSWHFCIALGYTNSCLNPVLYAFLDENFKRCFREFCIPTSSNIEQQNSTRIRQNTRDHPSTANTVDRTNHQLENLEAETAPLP
Method in brief: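 HEK293 cells stably expressing eYFP-β-arrestin-2 were transfected two days before with Rluc8-tagged MOP receptor. BRET was read at 37 °C with 5 μM coelenterazine H, 5 min after agonist addition.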

C57BL/6N mice = assay: CFA-induced inflammatory pain model; assay type: in vivo; settings: for CFA-induced thermal hypersensitivity (basal threshold): daily sc., measured before injection
Method: Tail inflammation in C57BL/6N mice was induced by injecting subcutaneously 20 μl of a Complete Freund's Adjuvant (CFA) solution or saline (control mice) 3 cm from the tip of the tail. Twenty-four hours after CFA injection (day 1), inflammation was confirmed by measuring thermal and mechanical hyperalgesia. Mice were then treated sc. daily for 7 days (from day 1 to day 7) with the test compounds or saline (control). Nociceptive threshold to heat stimulation was measured by tail immersion test (47.5±0.5° C.) and tail pressure test each hour for 5 h after the first drug administration in order to determine the peak of the anti-hyperalgesic response. During the following days, basal nociceptive thresholds were evaluated before injection and 2 h after drug injection. Antinociceptive response was calculated as percent of Maximum Possible Effect (% MPE) according to the formula=[(test latency−CFA/saline mice latency)/(cut-off time−CFA/saline mice latency)]×100. In order to limit behavioral sensitization, thermal nociception was evaluated on days 1-2-4-6 and mechanical nociception on days 1-3-5-7.

human KOPr = molecular target: T3, human KOPr (Homo sapiens, UniProt P41145); assay: Glo-sensor cAMP assay; assay type: cell-based
T3 construct: expressed in transfected cells; HEK293-Glo20F cells (cAMP)
T3 sequence (P41145 whole entry): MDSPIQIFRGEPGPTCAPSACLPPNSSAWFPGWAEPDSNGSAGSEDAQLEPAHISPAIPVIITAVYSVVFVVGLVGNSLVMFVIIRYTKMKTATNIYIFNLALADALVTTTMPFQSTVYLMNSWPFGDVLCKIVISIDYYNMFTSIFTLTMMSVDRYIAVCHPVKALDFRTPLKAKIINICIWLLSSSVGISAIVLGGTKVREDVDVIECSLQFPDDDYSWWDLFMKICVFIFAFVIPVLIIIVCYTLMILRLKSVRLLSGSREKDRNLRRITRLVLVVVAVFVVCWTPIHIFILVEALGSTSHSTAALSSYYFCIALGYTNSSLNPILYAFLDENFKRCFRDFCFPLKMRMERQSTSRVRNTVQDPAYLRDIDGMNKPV
Method: (§1) Stimulation by endogenous RF-amide peptides or test compounds for [^35S]-GTPγS binding to membranes from CHO cells expressing human NPFF1R or NPFF2R, were examined as reported. 1.6. Glo-Sensor cAMP Assay cAMP accumulation assay was essentially done as described with the following modifications: HEK293 cells stably expressing cAMP Glosensor-20F were used, with or without additional stable expression of each individual opioid receptor or NPFF1R. The cAMP responses were measured in presence of D-luciferin (1 mM).

human MOPr [2] = molecular target: T2, human MOPr; assay: Radioligand competition binding with [3H]-diprenorphine; design: expressed in transfected cells; HEK293-Glo20F cells (cAMP)
human NPFF1R = human NPFF1R (Homo sapiens, UniProt Q9GZQ6); assay: [35S]-GTPγS binding assay; assay type: biochemical; design: expressed in transfected cells; settings: for Emax: relative to RFRP3
human NPFF1R, sequence (Q9GZQ6 whole entry): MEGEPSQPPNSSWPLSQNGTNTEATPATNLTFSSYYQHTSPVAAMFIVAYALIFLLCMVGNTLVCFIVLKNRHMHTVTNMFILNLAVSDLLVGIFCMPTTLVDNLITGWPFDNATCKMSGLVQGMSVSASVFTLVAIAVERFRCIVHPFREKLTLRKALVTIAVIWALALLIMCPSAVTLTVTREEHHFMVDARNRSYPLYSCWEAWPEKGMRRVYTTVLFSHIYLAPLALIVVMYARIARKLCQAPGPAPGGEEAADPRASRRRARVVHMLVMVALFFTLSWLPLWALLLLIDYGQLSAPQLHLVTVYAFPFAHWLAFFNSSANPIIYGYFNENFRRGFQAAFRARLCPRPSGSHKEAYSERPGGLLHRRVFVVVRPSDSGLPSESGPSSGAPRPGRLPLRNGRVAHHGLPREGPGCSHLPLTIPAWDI
Method: as §1

NPFF2R = NPFF2R (Homo sapiens, UniProt Q9Y5X5); assay: [35S]-GTPγS binding assay; assay type: biochemical; design: expressed in transfected cells;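 as to Emax: Emax relative to NPFF as 100%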
NPFF2R, sequence (Q9Y5X5 whole entry): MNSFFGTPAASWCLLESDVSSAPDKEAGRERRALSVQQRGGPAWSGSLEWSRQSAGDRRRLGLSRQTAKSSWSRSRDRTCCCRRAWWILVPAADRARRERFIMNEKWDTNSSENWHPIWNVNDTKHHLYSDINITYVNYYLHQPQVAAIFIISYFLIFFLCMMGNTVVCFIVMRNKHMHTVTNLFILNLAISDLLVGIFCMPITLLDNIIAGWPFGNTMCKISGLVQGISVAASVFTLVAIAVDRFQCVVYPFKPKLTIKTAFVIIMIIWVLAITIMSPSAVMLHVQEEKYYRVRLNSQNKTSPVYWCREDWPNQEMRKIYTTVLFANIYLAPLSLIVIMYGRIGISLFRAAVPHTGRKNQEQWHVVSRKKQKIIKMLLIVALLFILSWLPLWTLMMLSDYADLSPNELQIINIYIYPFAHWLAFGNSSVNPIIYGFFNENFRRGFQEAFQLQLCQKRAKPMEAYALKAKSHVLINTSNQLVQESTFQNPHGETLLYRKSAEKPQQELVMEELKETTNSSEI
Method: as §1

GPR54 = molecular target: T4, GPR54 (Homo sapiens, UniProt Q969F8); assay: Radioligand competition binding with [125I]-Kp-10
T4 construct: expressed in transfected cells; host or cells: CHO cells, membranes
T4 sequence (Q969F8 whole entry): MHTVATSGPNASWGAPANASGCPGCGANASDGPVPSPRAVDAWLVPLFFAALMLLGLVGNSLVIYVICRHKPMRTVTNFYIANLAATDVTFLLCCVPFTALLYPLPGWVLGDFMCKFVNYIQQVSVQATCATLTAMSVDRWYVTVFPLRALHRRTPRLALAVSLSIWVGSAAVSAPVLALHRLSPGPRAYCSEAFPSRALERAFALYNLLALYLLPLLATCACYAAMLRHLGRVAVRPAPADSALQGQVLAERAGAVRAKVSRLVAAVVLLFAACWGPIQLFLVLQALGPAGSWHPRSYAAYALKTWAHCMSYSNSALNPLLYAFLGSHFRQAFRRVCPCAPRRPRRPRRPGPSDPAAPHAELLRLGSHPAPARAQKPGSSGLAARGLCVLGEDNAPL

human DOPr [3] = molecular target: T5, human DOPr (Homo sapiens, UniProt P41143); assay: biochemical; assay type: binding
T5 construct: expressed in transfected cells; HEK293-Glo20F cells (cAMP)
T5 sequence (P41143 whole entry): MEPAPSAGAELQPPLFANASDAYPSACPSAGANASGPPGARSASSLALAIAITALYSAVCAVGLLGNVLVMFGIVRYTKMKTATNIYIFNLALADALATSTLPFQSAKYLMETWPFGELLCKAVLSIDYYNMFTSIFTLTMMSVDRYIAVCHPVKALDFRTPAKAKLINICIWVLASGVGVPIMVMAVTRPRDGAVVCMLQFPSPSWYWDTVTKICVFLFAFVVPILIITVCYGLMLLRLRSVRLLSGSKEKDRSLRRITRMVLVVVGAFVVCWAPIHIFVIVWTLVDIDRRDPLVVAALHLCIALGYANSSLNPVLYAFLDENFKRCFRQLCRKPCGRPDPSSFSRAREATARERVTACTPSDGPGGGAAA

human DOPr [4] = molecular target: T5, human DOPr; assay: Glo-sensor cAMP assay; assay type: cell-based
Method: as §1, with “mM). All peptides and test compounds were incubated in the presence of IBMX for 15 min before inducing cAMP production by forskolin. IBMX and forskolin concentrations were optimized for each receptor cell line: NPFF1R responses were recorded in presence of 0.1 mM IBMX and 0.4 μM forskolin, NPFF2R responses with 0.5 mM IBMX and 0.3 μM forskolin, MOPr responses with 0.5 mM IBMX and 0.125 μM forskolin, DOPr responses with 0.1 mM IBMX and 0.125 μM forskolin; KOPr and NOPr with 0.5 mM IBMX and 1.5 μM forskolin.” for “mM).”

[5] = [3H]-PrRP-20, read-out: Ki ± SEM GPR10
[6] = [125I]-Kp-10, read-out: Ki ± SEM GPR54
[7] = Table 3a, read-out: MOPr (β-arrestin-2) EC50

| Structure (SMILES) | Ki (GPR10; [5]) | Emax (human MOPr [1]) | CFA-induced thermal hypersensitivity (basal threshold) (C57BL/6N mice) | Emax (human KOPr) | Ki (human MOPr [2]) | Ki (GPR54; [6]) | Ki (human DOPr [3]) | EC50 (human DOPr [4]) | Emax (human DOPr [4]) | EC50 (human MOPr [1]; [7]) | β-arrestin-2 recruitment (human MOPr [1]; in words) | Emax (human NPFF1R) | Emax (NPFF2R) | other results |
| --- | --- | --- | --- | --- | --- | --- | --- | --- | --- | --- | --- | --- | --- | --- |
| Cc1cc(O)cc(C)c1C[C@H](N)C(=O)N[C@H](CCCNC(=N)N)C(=O)N[C@H]1Cc2ccccc2CN(CCC(N)=O)C1=O [KGOP01, reference compound] | > 10000 nM | 103 ± 9% | not the case | 18 ± 1% | 0.12 ± 0.02 nM | > 10000 nM | 5.1 ± 0.5 nM | 0.16 ± 0.01 nM | 91 ± 2% | – | – | – | – | EC50 (human MOPr [1]): 1.6 ± 0.1 nM; β-arrestin-2 recruitment (human MOPr [1]): full response; EC50 (human KOPr; read-out: KOPr (cAMP) EC50): > 10000 nM; EC50 (human NPFF1R; membranes from CHO-hNPFF1R cells, read-out: NPFF1R (GTPγS) EC50): > 10000 nM; EC50 (NPFF2R; membranes from CHO-hNPFF2R cells, read-out: NPFF2R (GTPγS) EC50): > 10000 nM |
| Cc1cc(O)cc(C)c1C[C@H](N)C(=O)N[C@H](CCCNC(=N)N)C(=O)N[C@H]1Cc2ccccc2CN(CCC(=O)N[C@@H](CCCNC(=N)N)C(=O)N[C@@H](Cc2ccccc2)C(N)=O)C1=O [KGFF03, H-Dmt-D-Arg-Aba-β-Ala-Arg-Phe-NH2] (HELM PEPTIDE1{[Cc1cc(O)cc(C)c1C[C@H](N)C(=O)[*:2]].[dR].[O=C1[C@@H](N[*:1])Cc2ccccc2CN1CCC(=O)[*:2]].R.F.[am]}$$$$V2.0) | – | 41 ± 11% | not the case | 34 ± 11% | 0.24 ± 0.03 nM | – | 9.1 ± 0.7 nM | 0.34 nM | 89 ± 6% | 33.9 ± 8.8 nM | partial agonism | 88 ± 7% | 111 ± 17% | Ki (GPR10): > 10000 nM; EC50 (human KOPr): 95 nM; Ki (GPR54): 4370 nM |
| Cc1cc(O)cc(C)c1C[C@H](N)C(=O)N[C@H](CCCNC(=N)N)C(=O)N[C@H]1Cc2ccccc2CN(CCC(=O)N[C@@H](CCCN2CCC(Cc3ccccc3)CC2)C(=O)N[C@@H](Cc2ccccc2)C(N)=O)C1=O [KGFF09, H-Dmt-D-Arg-Aba-β-Ala-Bpa-Phe-NH2] | > 10000 nM | 42 ± 2% | totally reversed after the third injection | 15 ± 1% | 2.43 ± 0.18 nM | 2000 nM | 186 ± 77 nM | 0.78 nM | 90 ± 3% | 56.4 ± 26.5 nM | partial agonism | 10 ± 2% | 38 ± 14% | analgesic tolerance after 7 days of chronic administration (C57BL/6N mice; in words): significantly less tolerance |
